Source: patent US20100069254A1, “Cell Culture Model for Demyelination/Remyelination” (priority 2008, published 2010)
“Also recorded” adds a separate entry of the source.

Experiments:
Xenopus tadpoles = conditions: 0.1 to 0.2 μg/ml in tadpole bins; cited from earlier work
[1] = system: oligodendrocytes and neurons; test: MTS metabolic activity assay (CellTiter 96 AQueous One) of demyelinated cell cultures
Method: Metabolic activity of cells was then measured by an MTS assay as described in the text.
Monitoring of metabolic activity (CellTiter 96® AQueous One; Promega) is used to identify concentrations that caused a minimum amount of damage to the oligodendrocytes and neurons. In this assay a tetrazolium compound (MTS) and an electron coupling reagent (phenazine ethosulfate) are used for calorimetric detection of metabolic activity. MTS is bioreduced, presumably by NADPH or NADH, into a colored formazan product that is soluble in tissue culture medium and can be detected spectrophotometrically. Absorbance at about […] is proportional to metabolic activity and is commonly used to monitor the number of living cells in culture.

animals = conditions: injection of 2 μl of a 1% solution; cited from earlier work

Row | Molecule | demyelination in Xenopus tadpoles (Xenopus tadpoles) | effect on cellular metabolism / damage to neural or glial cell bodies (metabolic assay) ([1]; 10 μg/ml, 10 minute exposure) | cellular damage (metabolic assay) ([1]; relatively low concentrations (0.1%), 10 minutes) | local demyelination in animals (animals)
1 | Oc1c(Cl)cc(Cl)c(Cl)c1Cc1c(O)c(Cl)cc(Cl)c1Cl [hexachlorophene] | cause demyelination | without an observable effect on cellular metabolism; also recorded: mild enough to prevent significant damage to the neural or glial cell bodies | – | –
2 | lysophosphatidylcholine | – | – | significant cellular damage | cause local demyelination
